A word on the solubility: it is how much of the substance goes into solution per volume. Higher therefore signals a readily soluble substance. By EC50 is commonly meant the concentration needed to bring the measured effect to its halfway point. One may read the CC50 as the concentration giving 50% cytotoxicity. By IC50 is commonly meant the concentration that inhibits the measured activity by half.

The values that follow come from patent US20170232031A1, “Inhibitors of Zika Virus” (Riboscience LLC, priority 2016, published 2017).

A short description of data set [1]: Solubility in cell culture medium / aqueous media. Particulars: plasma or biological fluid.
Data set [2] deals with T1, human RNA polymerase I (Homo sapiens, UniProt O95602+Q9H9Y6).
T1 construct: endogenous in cells; host or cells: HeLa
The data set can be described thus: RNA polymerase I specific reporter gene assay in HeLa cells. The class given is cell-based. Particulars: 10 or 100 μM (highest soluble concentrations).

The test system of data set [3] is HCV replicon of genotype 1b (Con1). The experiment in a line: HCV replicon genotype 1b antiviral activity. Particulars: Hepatitis C virus; replicon genotype 1b (Con1); read-out: HCV GT1b EC50. The class given is cell-based. Background: In antiviral work, replicon cells carry a viral genome segment that copies itself.
Data set [4] can be described thus: Cell viability (CC50) alongside ZIKV antiviral assay, Cell-titer Glo. Type of data set: cell-based. The following applies: human, Huh-7 cells. The method, then:
(§1) The human hepatoma cell line Huh-7, are cultured in DMEM without phenol-red (Cellgro Mediatech, Cat #10-013-CV containing 4.5 g/l glucose, L-glutamine & sodium pyruvate). The medium is further supplemented with 10% (v/v) FBS (ATLAS Cat # F-0500-A, lot#850114A) and 1% (vlv) penicillin/streptomycin (Cellgro Mediatech #30-022-CI). Cells are maintained at 37° C. in a humidified 5% CO2 atmosphere. Zika virus representative strain titers are measured on BHK-21 cells, using a standard plaque assay procedure. For the determination of EC50 of nucleoside in the antiviral assay, Huh-7 cells are plated in white 96-well plates in MEM media supplemented with 10% FBS and 1% penicillin/streptomycin. After incubation for 24 h, the cells are infected at a multiplicity of infection (MOI) of 0.5 for 2 h at 37° C. Ten three-fold dilutions of compounds are prepared in the same media supplemented with 1% DMSO. After the 2 h adsorption phase, the virus is aspirated off and diluted compound is added to four wells each. Huh-7 cells are plated as described above and exposed to the same concentration range of compounds. Untreated cells are carried along as a control. After a 3-day incubation at 37° C., the cell viability is determined using Cell-titer Glo™ reagent (Promega, Madison, Wis.) that is added to each well and incubated for 5 min. Plates are analyzed using a Thermo Luminoskan plate reader (Waltham, Mass.).

Data set [5] concerns HCV replicon of genotype 1a (H77). The experiment in a line: HCV replicon genotype 1a antiviral activity. Type of data set: cell-based. The following applies: Hepatitis C virus; replicon genotype 1a (H77); read-out: HCV GT1a EC50.
Data set [6] addresses T2, human RNA polymerase III (Homo sapiens, UniProt O14802+Q9NW08).
T2 construct: endogenous in cells; host or cells: HeLa
The experiment in a line: RNA polymerase III specific reporter gene assay in HeLa cells. The class given is cell-based. The following applies: 10 or 100 μM (highest soluble concentrations). Background: A reporter such as luciferase makes a cellular process visible.

Data set [7] in a line: Cytotoxicity (CC50) alongside HCV GT1a replicon assay. Type of data set: cell-based. Particulars: HCV GT1a (H77) replicon cells; replicon genotype 1a (H77).
Data set [8] deals with T3, human RNA polymerase II (Homo sapiens, UniProt P24928+P30876).
T3 construct: endogenous in cells; host or cells: HeLa
The data set can be described thus: RNA polymerase II specific reporter gene assay in HeLa cells. The class given is cell-based. Particulars: 10 or 100 μM (highest soluble concentrations).

Data set [9] relates to ZIKV strain MR766 (Genbank LC002520). The data set can be described thus: Antiviral activity against ZIKV replication in cells. The class given is cell-based, Zika virus. The method, then: as §1
Data set [10] is described as follows: Cytotoxicity (CC50) alongside HCV GT1b replicon assay. Particulars: HCV GT1b (Con1) replicon cells.
A further data set concerns the target T4, human DNA polymerase α (Homo sapiens, UniProt P09884).
T4 sequence (P09884 1-1462): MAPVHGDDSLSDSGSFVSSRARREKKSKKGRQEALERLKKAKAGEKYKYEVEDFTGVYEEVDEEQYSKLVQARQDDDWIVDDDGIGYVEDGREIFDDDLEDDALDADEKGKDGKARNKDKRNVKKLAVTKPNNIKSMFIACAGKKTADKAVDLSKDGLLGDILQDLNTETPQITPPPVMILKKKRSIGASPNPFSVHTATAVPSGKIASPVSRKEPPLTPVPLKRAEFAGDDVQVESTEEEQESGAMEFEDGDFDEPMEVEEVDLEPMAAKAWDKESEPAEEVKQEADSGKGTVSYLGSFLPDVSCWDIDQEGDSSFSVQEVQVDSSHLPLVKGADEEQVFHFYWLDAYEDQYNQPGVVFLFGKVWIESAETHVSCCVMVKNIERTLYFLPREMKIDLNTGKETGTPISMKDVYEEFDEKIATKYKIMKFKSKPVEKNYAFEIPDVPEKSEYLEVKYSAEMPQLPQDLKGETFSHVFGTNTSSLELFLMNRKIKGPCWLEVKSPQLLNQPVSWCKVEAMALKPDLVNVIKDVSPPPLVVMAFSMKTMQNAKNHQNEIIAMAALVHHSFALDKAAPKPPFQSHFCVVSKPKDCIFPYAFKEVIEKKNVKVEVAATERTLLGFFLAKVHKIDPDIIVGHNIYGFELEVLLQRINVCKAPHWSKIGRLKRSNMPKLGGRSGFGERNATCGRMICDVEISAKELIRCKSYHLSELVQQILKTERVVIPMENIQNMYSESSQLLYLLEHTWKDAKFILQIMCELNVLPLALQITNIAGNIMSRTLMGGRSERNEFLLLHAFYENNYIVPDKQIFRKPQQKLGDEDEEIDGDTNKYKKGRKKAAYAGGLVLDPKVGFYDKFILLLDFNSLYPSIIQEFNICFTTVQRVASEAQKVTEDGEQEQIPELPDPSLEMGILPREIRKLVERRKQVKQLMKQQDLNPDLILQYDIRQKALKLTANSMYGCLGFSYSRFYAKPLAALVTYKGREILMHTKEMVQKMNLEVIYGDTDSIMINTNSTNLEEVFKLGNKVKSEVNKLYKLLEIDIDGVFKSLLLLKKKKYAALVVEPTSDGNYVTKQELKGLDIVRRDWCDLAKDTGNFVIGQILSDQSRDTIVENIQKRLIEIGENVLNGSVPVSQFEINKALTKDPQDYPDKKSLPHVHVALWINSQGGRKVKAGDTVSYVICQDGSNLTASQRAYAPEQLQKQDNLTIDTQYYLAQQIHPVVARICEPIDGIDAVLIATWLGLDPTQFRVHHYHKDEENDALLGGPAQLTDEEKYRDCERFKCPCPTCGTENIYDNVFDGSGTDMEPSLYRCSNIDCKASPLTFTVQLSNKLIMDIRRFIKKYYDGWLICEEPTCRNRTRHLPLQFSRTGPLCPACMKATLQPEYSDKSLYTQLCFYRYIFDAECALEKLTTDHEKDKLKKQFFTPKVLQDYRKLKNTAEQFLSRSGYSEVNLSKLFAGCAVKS
The data set can be described thus: Inhibition of human DNA polymerase α. Type of data set: biochemical.

The target of data set [11] is T3, human RNA polymerase II. The experiment in a line: Human RNA polymerase II activity in cell extracts. The class given is biochemical.
For another data set, the target named is human DNA polymerase β (Homo sapiens, UniProt P06746). The data set can be described thus: Inhibition of human DNA polymerase β. Type of data set: biochemical.
In a further data set the target is influenza polymerase (Influenza A virus, UniProt P03431). The data set can be described thus: Activity against influenza polymerase. Type of data set: biochemical.
Chain of influenza polymerase (P03431 whole entry, looked up): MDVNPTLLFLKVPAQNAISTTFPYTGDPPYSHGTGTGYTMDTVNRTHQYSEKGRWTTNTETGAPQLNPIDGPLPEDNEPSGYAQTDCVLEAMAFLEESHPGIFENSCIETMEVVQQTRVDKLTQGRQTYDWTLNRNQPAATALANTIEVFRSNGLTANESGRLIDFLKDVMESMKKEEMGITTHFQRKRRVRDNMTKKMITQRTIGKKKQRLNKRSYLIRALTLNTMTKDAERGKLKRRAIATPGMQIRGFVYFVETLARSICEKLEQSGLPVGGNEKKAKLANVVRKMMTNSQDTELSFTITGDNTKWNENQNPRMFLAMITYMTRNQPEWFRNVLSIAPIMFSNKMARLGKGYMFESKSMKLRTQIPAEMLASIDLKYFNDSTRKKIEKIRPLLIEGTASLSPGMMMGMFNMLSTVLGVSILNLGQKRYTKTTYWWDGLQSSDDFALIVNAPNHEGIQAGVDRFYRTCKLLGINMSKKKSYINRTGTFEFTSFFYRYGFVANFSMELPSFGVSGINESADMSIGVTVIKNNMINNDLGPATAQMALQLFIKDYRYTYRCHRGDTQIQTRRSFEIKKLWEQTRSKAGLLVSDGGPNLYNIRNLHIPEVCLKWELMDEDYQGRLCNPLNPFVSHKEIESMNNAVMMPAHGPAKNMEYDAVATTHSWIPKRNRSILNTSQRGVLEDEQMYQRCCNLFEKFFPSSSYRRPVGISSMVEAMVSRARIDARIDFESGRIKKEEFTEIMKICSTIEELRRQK
The target in the next data set is HCV polymerase (Hepatitis C virus genotype 1a, UniProt P27958). The experiment in a line: Inhibition of HCV polymerase. Type of data set: biochemical.
Chain of HCV polymerase (P27958 2421-3011): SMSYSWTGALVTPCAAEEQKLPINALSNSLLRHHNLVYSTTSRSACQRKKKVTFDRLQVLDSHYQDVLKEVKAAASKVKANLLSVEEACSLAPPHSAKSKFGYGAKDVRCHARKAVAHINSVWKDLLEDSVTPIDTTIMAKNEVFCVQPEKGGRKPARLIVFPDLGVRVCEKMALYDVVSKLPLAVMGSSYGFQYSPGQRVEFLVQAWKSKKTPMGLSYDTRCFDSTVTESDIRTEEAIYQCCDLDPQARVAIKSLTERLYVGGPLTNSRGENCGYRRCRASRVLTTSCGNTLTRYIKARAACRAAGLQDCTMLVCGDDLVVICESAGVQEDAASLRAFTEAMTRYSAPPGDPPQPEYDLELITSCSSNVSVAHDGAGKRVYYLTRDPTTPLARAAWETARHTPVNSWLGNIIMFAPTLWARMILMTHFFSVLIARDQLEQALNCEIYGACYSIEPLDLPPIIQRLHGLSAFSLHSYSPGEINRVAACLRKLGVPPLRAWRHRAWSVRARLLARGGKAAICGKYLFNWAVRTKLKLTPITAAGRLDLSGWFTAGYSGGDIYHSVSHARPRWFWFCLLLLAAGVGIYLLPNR
A further data set has as its target Dengue virus polymerase (Dengue virus type 2, UniProt P29990). The experiment in a line: Inhibition of Dengue virus polymerase. The class given is biochemical.
The target in data set [12] is T2, human RNA polymerase III. The experiment in a line: Human RNA polymerase III activity in cell extracts. The class given is biochemical.
For a further data set, the system named is RSV polymerase. The experiment in a line: Activity against RSV polymerase. The class given is biochemical.
The target of data set [13] is T5, mitochondrial DNA polymerase pol γ (Homo sapiens, UniProt P54098).
T5 sequence (P54098 1-1239): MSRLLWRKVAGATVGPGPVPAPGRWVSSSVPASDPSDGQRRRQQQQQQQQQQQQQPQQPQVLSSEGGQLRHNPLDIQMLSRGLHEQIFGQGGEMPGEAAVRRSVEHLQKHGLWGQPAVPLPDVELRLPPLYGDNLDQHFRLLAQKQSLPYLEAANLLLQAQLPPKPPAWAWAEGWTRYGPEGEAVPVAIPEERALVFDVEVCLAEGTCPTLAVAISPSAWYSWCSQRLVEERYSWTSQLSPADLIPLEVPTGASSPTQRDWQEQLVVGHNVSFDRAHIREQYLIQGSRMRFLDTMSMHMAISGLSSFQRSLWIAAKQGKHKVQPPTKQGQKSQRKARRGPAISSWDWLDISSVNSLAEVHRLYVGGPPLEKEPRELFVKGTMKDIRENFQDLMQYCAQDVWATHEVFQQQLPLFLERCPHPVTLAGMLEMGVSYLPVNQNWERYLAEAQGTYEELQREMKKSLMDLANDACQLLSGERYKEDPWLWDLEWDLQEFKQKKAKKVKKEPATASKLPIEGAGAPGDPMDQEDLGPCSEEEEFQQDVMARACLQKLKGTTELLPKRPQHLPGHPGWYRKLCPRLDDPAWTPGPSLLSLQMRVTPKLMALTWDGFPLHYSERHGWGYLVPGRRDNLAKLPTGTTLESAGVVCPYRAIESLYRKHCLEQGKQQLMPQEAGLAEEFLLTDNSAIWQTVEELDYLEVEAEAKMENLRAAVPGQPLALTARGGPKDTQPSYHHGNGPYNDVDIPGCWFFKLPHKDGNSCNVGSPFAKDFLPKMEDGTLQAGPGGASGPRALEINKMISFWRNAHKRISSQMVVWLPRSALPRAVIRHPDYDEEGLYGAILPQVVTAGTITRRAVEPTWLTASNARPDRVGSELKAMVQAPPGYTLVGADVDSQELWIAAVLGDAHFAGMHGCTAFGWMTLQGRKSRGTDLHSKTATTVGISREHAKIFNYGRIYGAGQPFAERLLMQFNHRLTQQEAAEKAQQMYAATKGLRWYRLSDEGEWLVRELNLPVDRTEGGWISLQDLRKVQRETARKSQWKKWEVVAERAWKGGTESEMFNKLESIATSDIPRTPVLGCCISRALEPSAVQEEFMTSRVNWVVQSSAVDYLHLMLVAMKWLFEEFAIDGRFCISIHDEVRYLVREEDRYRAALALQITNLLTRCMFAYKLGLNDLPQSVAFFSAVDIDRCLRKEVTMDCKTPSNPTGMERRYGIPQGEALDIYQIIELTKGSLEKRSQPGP
The data set can be described thus: Inhibition of mitochondrial DNA polymerase pol γ. The class given is biochemical. Particulars: read-out: DNA pol γ IC50.

Data set [14] concerns the target T1, human RNA polymerase I. The data set can be described thus: Human RNA polymerase I activity in cell extracts. The class given is biochemical.

Read-outs that look alike come from different tables or passages of the source.

Chain of Dengue virus polymerase (P29990 2492-3391): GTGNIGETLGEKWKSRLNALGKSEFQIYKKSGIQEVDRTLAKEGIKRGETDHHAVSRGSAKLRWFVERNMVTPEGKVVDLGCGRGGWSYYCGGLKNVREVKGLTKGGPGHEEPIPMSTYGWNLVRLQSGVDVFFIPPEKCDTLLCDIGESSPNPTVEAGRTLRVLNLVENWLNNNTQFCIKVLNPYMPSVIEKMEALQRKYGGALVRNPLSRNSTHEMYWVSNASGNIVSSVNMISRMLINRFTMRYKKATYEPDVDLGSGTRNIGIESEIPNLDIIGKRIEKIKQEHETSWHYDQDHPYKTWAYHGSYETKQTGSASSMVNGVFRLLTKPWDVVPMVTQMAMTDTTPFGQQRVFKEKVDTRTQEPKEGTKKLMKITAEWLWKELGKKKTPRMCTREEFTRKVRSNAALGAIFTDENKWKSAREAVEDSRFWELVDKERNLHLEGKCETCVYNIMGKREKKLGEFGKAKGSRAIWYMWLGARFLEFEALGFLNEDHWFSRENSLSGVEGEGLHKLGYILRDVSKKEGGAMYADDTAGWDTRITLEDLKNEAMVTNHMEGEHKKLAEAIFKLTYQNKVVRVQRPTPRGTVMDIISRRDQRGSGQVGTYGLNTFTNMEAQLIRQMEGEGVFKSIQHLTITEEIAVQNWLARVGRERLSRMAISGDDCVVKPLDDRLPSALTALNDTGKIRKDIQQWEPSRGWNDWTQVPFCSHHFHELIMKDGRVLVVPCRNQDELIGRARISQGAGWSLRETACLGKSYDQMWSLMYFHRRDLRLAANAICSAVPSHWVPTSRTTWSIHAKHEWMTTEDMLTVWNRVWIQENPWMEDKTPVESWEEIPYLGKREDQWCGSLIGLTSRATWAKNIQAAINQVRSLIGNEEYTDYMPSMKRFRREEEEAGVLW

In turn, `C[C@H](NP(=O)(OC[C@@]1(N=[N+]=[N-])O[C@@H](n2ccc(=O)[nH]c2=O)[C@H](O)[C@@H]1O)Oc1cccc2ccccc12)C(=O)OCc1ccccc1` (stereo partly drawn) [Compound I-1, benzyl ((((2R,3S,4R,5R)-2-azido-5-(2,4-dioxo-3,4-dihydropyrimidin-1(2H)-yl)-3,4-dihydroxytetrahydrofuran-2-yl)methoxy)(naphthalen-1-yloxy)phosphoryl)-L-alaninate] had a solubility in [1] of at most 10 µM. Further, the “inhibition of human RNA polymerase I activity (reporter gene)” value at human RNA polymerase I [2] was “did not inhibit”. For the same compound, the EC50 in [3] amounted to 0.33 µM; in data set [5], 0.42 µM; in data set [9] (Zika virus, ZIKV strain MR766, human Huh-7 or mouse MEF cells), 0.74 µM. The CC50 at 3 day in [4] (cytotoxicity column of the ZIKV assay, read-out: ZIKV CC50) was over 10 µM; in data set [4] (summary statement, cytotoxicity in cell culture, read-out: Huh-7 cell CC50), over 100 µM. In addition, at human RNA polymerase III [6], the “inhibition of human RNA polymerase III activity (reporter gene)” value is listed as “did not inhibit”. For the same compound, the 50% cytotoxic concentration (CC50) in data set [7] and in data set [10] was over 10 µM each time. Also, the “inhibition of human RNA polymerase II activity (reporter gene)” value against human RNA polymerase II [8] is given as “did not inhibit”. The “antiviral inhibition potency (EC50), in words” value in data set [9] (summary statement) is recorded as “submicromolar”.

On to `[N-]=[N+]=N[C@]1(COP(=O)(O)OP(=O)(O)OP(=O)(O)O)O[C@@H](n2ccc(=O)[nH]c2=O)[C@H](O)[C@@H]1O` [Compound 4AUTP, 4′-azido-uridine triphosphate], for which the IC50 (on human DNA polymerase α; on human RNA polymerase II [11]; against human DNA polymerase β; against human RNA polymerase III [12]; in data set [13]; against human RNA polymerase I [14]) was over 1000 µM in each case. In addition, the “activity against influenza polymerase” value on influenza polymerase is on record as “not active”. For the same compound, on HCV polymerase, the “inhibition of HCV polymerase” value is “inhibition”. Further, the “inhibition of Dengue virus polymerase” value on Dengue virus polymerase is reported as “inhibition”. For the same compound, the “activity against RSV polymerase” value in the data set with RSV polymerase is on record as “not active”.
